The source of these data is patent US8808692B2, “Compositions comprising immunoreactive reagents and saponins, and methods of use thereof” (CSL Limited, priority 2001, dated 2014).

The conditions of data set [1]: cited from earlier work; for level of antibody response induced: mice, antigens bovine serum albumin and cytochrome b5; for IgG2a response to cytochrome b5: saponin doses of 20 μg.
The conditions of data set [2]: melanoma patients; cited from earlier work.
The next data set has as its system macrophage cells. Nature of the data set: Cytokine production in macrophage cells. It counts as cell-based.
Data set [3] relates to S. pneumonia or S. aureus. Nature of the data set: Opsonophagocytosis assay with HL-60 effector cells. To be noted: HL-60 effector cells incubated with QS-21, at a given antibody titer. The format is cell-based.
Data set [4] concerns bone marrow derived dendritic cells. The data set can be described thus: Cytokine production in bone marrow derived dendritic cells. It counts as cell-based.
Data set [5] deals with MO4 tumor or EG7-OVA tumor. Nature of the data set: Tumor challenge model. The format is in vivo, C57B1/6 mice. To be noted: QS-21 (10-20 ug) with monoclonal antibody vs monoclonal antibody alone; 30 to 60 day period. On the procedure:
C57B1/6 mice are inoculated by s.c. route in the flank with MO4 tumor (1 ×10^5) or EG7-OVA tumor. At 24 to 48 hours after inoculation, mice are injected by IP route with a monoclonal antibody to SIINFEKL (SEQ ID NO: 1)/Class I MHC , or by local SC route in the presence or absence of QS-21 (10 -20 ug). The antitumor effect of the QS-21/monoclonal antibody treatment is compared to that of monoclonal antibody treatment by monitoring the growth of the tumors over a 30 to 60 day period (measurement with calipers). Survival was determined, and significance with respect to time to death was assessed using Cox regression analysis. Mice were also observed daily for signs of toxicity including level of activity, ruffled fur, diarrhea, and general appearance. […] Models and methods for evaluation of the effects of saponins and antibodies, or other immunoreactive reagents are known in the art. (Wooldridge et al., Blood, 1997, 89 (8): 2994-2998, incorporated by reference herein in its entirety).

Data set [6] relates to Fc α R, Fc gamma R1, Fc gamma RII or Fc gamma RIII. The data set can be described thus: Upregulation of Fc receptors (FACScan). The format is cell-based. To be noted: QS-21 for example 1-10 ug/ml. The protocol: Monocytes, natural killer cells, or polymorphonuclear cells are incubated in the presence or absence of QS-21 (for example 1-10 ug/ml). The trypsinized cells are incubated at 4° C. for 60 min with monoclonal antibodies specific to Fc α R, Fc gamma R1, Fc gamma RII or Fc gamma RIII. The cells are then incubated with an anti-mouse IgG FITC probe, washed, fixed in paraformaldehyde, and analyzed by FACScan.

The subject of data set [7] is target cells (E.G7-OVA or MO4). The data set can be described thus: Enhancement of antibody mediated lysis in vitro (51Cr-labeled target cells). It counts as cell-based, mice. To be noted: splenocytes incubated with 1 to 10 ug/ml QS-21 for 24 to 72 hours; monoclonal antibody to SIINFEKL/Class I MHC 1 to 10 ug/ml. The protocol:
Murine splenocytes (effector cells) are generated from the spleens of naive 6-8week old mice. These effector cells are incubated with 1 to 10 ug/ml of QS-21 or appropriate amount of another immunomodulatory saponin for 24 to 72 hours. At the end of the incubation period, target cells (E.G7-OVA or MO4) are loaded with 51 Cr. Effector cells and labeled target cells are incubated at defined effector:target ratios in the presence and absence of monoclonal antibody to SIINFEKL (SEQ ID NO: 1)/Class I MHC (1 to 10 ug/ml) at […] for 30 to 60minutes. The lysis in the presence of QS-21 and monoclonal is compared to controls without QS-21, without monoclonal, or both.

The conditions of data set [8]: mouse, in vivo; cited from earlier work.

For QS-17, in data set [1], the “level of antibody response induced” value was “comparable to other commonly used adjuvants” and the “IgG2a response to cytochrome b5” value was “stimulate IgG2a response”.

For the substance QS-18, in data set [1], the “level of antibody response induced” value was “comparable to other commonly used adjuvants” and the “IgG2a response to cytochrome b5” value was “stimulate IgG2a response”.

On to QS-21, for which the “serological response to MELIMMUNE-1” value in [2] is recorded as “significantly increased”. Besides, in the data set on macrophage cells, the IL-6 entry is “upregulation”, the MIP-1-alpha entry is reported as “upregulation” and the TNF-alpha result was “upregulation”. Moreover, the opsonization of bacteria result in data set [3] is given as “Improved opsonization”. Also, in data set [4], the “production of II-12” value was “decrease the production”, the “production of IL-1” value is given as “increase production”, the “production of MIP-1-alpha” value was “increase production” and the “production of MIP-1-beta” value was “decrease the production”. In addition, the tumor progression result in data set [5] is listed as “delay in tumor progression”. Further, in [6], the “Fc receptors on monocytes, natural killer cells, or polymorphonuclear cells” value is listed as “Upregulation”. Further, in data set [7], the “lysis due to QS-21/monoclonal over monoclonal alone” value is listed as “enhanced lysis”. The toxicity in mice entry in data set [8] is recorded as “least toxic”. Also, in [1], the “level of antibody response induced” value is on record as “comparable to other commonly used adjuvants” and the “IgG2a response to cytochrome b5” value is “stimulate IgG2a response”.
